Data published in US9630943B2, “Tetrahydronaphthyl(thio) carboxamides” (BAYER CROPSCIENCE AG, priority 2012, dated 2017).

test system: Alternaria brassicae; test: In vivo preventive test on Alternaria brassicae (leaf spot on radish); details: radish plants, preventive spray, dose 100 ppm, grading 6 days after contamination
Procedure: Radish plants (“Pernod Clair” variety), sown in starter cups on a 50/50 peat soil-pozzolana substrate and grown at 17° C., are treated at the cotyledon stage by spraying with the active ingredient prepared as described above. Plants, used as controls, are treated with the mixture of acetone/tween/DMSO/water not containing the active material. After 24 hours, the plants are contaminated by spraying the cotyledons with an aqueous suspension of Alternaria brassicae spores (50 000 spores per ml). The spores are collected from a 15-day-old culture. The contaminated radish plants are incubated at 20° C. and at 100% relative humidity. Grading (% of efficacy) is carried out 6 days after the contamination, in comparison with the control plants.

Row | Compound | biological efficacy
1 | CC1(C)CCc2c(cccc2NC(=S)c2ccoc2C(F)F)C1 [Example 96] | ≥ 70%

test system: Botrytis cinerea; test: In vivo preventive test on Botrytis cinerea (grey mould); details: gherkin plants, preventive spray, dose 100 ppm, grading 4 to 5 days after contamination
Procedure: Gherkin plants (“Vert petit de Paris” variety), sown in starter cups on a 50/50 peat soil-pozzolana substrate and grown at 24° C., are treated at the Z11 cotyledon stage by spraying with the active ingredient prepared as described above. Plants, used as controls, are treated with the mixture of acetone/tween/DMSO/water not containing the active material. After 24 hours, the plants are contaminated by spraying the cotyledons with an aqueous suspension of cryopreserved Botrytis cinerea spores (50 000 spores per ml). The spores are suspended in a nutrient solution composed of 10 g/L of PDB, 50 g/L of D-Fructose, 2 g/L of NH4NO3 and 1 g/L of KH2PO4. […] Grading (% of efficacy) is carried out 4 to 5 days after the contamination, in comparison with the control plants.

Row | Compound | biological efficacy
2 | CCCC1CCc2c(NC(=O)c3cn(C)nc3C(F)F)cccc2C1C (mixture of isomers) [Example 95] | ≥ 80%

test system: Pyricularia oryzae; test: not given; format: in vivo; details: rice plants, preventive spray, dose 500 ppm, grading 6 days after contamination

Row | Compound | biological efficacy
3 | Cc1nc(C(F)F)c(C(=O)Nc2cccc3c2CCCC3(C)C)s1 [Example 3] | ≥ 90%

test system: Sphaerotheca fuliginea; test: In vivo preventive test on Sphaerotheca fuliginea (powdery mildew on cucurbits); details: gherkin plants, preventive spray, dose 100 ppm, grading 12 days after contamination
Procedure: Gherkin plants (“Vert petit de Paris” variety), sown in starter cups on a 50/50 peat soil-pozzolana substrate and grown at 24° C., are treated at the Z11 cotyledon stage by spraying with the active ingredient prepared as described above. Plants, used as controls, are treated with the mixture of acetone/tween/DMSO/water not containing the active material. After 24 hours, the plants are contaminated by spraying the cotyledons with an aqueous suspension of Sphaerotheca fuliginea spores (100 000 spores per ml). The spores are collected from infected plants. […] Grading (% of efficacy) is carried out 12 days after the contamination, in comparison with the control plants.

Row | Compound | biological efficacy
4 | Cc1nc(C(F)F)c(C(=S)Nc2cccc3c2CCC(C)(C)C3)s1 [Example 97, 4-(difluoromethyl)-N-(6,6-dimethyl-5,6,7,8-tetrahydronaphthalen-1-yl)-2-methyl-1,3-thiazole-5-carbothioamide] | ≥ 80%

test system: not listed separately; test: Measurement of logP values by HPLC on reversed phase columns (EEC directive 79/831 Annex V.A8); format: physicochemical; details: method [a]

Row | Compound | LogP^[a]
5 | Cc1nc(C(F)F)c(C(=O)Nc2cccc3c2CCCC3(C)C)s1 [Example 3] | 3.64^[a]
6 | Cc1nn(C)c(F)c1C(=O)Nc1cccc2c1CCC(C)(C)C2=O [Example 30] | 2.28^[a]
7 | Cc1nn(C)c(C)c1C(=O)Nc1cccc2c1CCC(C)(C)C2=O [Example 31] | 2.04^[a]
8 | CCc1nc(C)sc1C(=O)Nc1cccc2c1CCC(C)(C)C2=O [Example 32] | 2.71^[a]
9 | Cc1nc(C(F)F)c(C(=O)Nc2cccc3c2CCC(C)(C)C3=O)s1 [Example 33] | 2.73^[a]
10 | CC1c2c(cccc2NC(=O)c2cn(C)nc2C(F)F)CCC1(C)C (centres unmarked) [Example 34] | 3.51^[a]
11 | CON=C1CCCc2c(NC(=O)c3c(C)nn(C)c3C)cccc21 [Example 37] | 2.17^[a]
12 | CON=C1CCCc2c(NC(=O)c3cn(C)nc3C(F)F)cccc21 [Example 38] | 2.56^[a]
13 | CON=C1CCCc2c(NC(=O)c3c(C)nn(C)c3F)cccc21 [Example 39] | 2.47^[a]
14 | CCON=C1CCCc2c(NC(=O)c3c(C)nn(C)c3F)cccc21 [Example 40] | 2.86^[a]
15 | CCON=C1CCCc2c(NC(=O)c3c(C)nn(C)c3C)cccc21 [Example 41] | 2.58^[a]
16 | CCON=C1CCCc2c(NC(=O)c3cn(C)nc3C(F)F)cccc21 [Example 42] | 2.96^[a]
17 | Cn1cc(C(=O)Nc2cccc3c2CCC(C)(C)C3)c(C(F)F)n1 [Example 43] | 3.35^[a]
18 | Cc1nn(C)c(C)c1C(=O)Nc1cccc2c1CCC(C)(C)C2 [Example 45] | 2.94^[a]
19 | Cc1nc(C(F)F)c(C(=O)Nc2cccc3c2CCC(C)(C)C3)s1 [Example 46] | 3.81^[a]
20 | CCc1nc(C)sc1C(=O)Nc1cccc2c1CCCC2=NOC [Example 47] | 3.02^[a]
21 | CON=C1CCCc2c(NC(=O)c3sc(C)nc3C(F)F)cccc21 [Example 48] | 2.92^[a]
22 | CON=C1CCCc2c(NC(=O)c3ccsc3Br)cccc21 [Example 49] | 3.37^[a]
23 | CC1(C)CCCc2c(NC(=O)c3nccnc3I)ccc(F)c21 [Example 50] | 3.92^[a]
24 | CC1(C)CCCc2c(NC(=O)c3ccoc3C(F)F)ccc(F)c21 [Example 51] | 4.06^[a]
25 | CC1(C)CCCc2c(NC(=O)c3nccnc3C(F)(F)F)ccc(F)c21 [Example 52] | 3.96^[a]

Row | Compound | LogP^[a]
26 | CON=C1CCCc2c(NC(=O)c3ccoc3C(F)F)cccc21 [Example 53] | 3.25^[a]
27 | CON=C1CCCc2c(NC(=O)c3nccnc3I)cccc21 [Example 54] | 2.94^[a]
28 | CON=C1CCCc2c(NC(=O)c3nccnc3C(F)(F)F)cccc21 [Example 55] | 3.08^[a]
29 | CON=C1CCCc2c(NC(=O)c3ccsc3I)cccc21 [Example 56] | 3.37^[a]
30 | CC1(C)CCCc2c(NC(=O)C3=C(C(F)(F)F)OCCS3)ccc(F)c21 [Example 57] | 4.01^[a]
31 | Cc1nc(C(F)F)c(C(=O)Nc2ccc(F)c3c2CCCC3(C)C)s1 [Example 58] | 3.79^[a]
32 | CCc1nc(C)sc1C(=O)Nc1ccc(F)c2c1CCCC2(C)C [Example 59] | 3.85^[a]
33 | Cn1cc(C(=O)Nc2cccc3c2CCCC3(C)C)c(C(F)F)n1 [Example 60] | 3.39^[a]
34 | Cc1nn(C)c(F)c1C(=O)Nc1cccc2c1CCCC2(C)C [Example 61] | 3.35^[a]
35 | Cc1oc(C)c(C(=O)Nc2ccc(F)c3c2CCCC3(C)C)c1C [Example 62] | 4.51^[a]
36 | CC1(C)CCCc2c(NC(=O)c3ccsc3I)ccc(F)c21 [Example 63] | 4.29^[a]
37 | CC1(C)CCc2c(cccc2NC(=O)c2ccoc2C(F)F)C1 [Example 64] | 4.06^[a]
38 | Cc1oc(C)c(C(=O)Nc2cccc3c2CCC(C)(C)C3)c1C [Example 65] | 4.59^[a]
39 | CC1(C)CCc2c(cccc2NC(=O)c2ccsc2Br)C1 [Example 66] | 4.41^[a]
40 | CC1(C)CCc2c(cccc2NC(=O)c2nccnc2I)C1 [Example 67] | 4.01^[a]
41 | CC1(C)CCc2c(cccc2NC(=O)c2nccnc2C(F)(F)F)C1 [Example 68] | 3.99^[a]
42 | CC1(C)CCc2c(cccc2NC(=O)C2=C(C(F)(F)F)OCCS2)C1 [Example 69] | 3.99^[a]
43 | CCON=C1CCCc2c(NC(=O)c3nccnc3I)cccc21 [Example 70] | 3.44^[a]
44 | CON=C1CCCc2c(NC(=O)c3c(C)oc(C)c3C)cccc21 [Example 71] | 3.55^[a]
45 | CCON=C1CCCc2c(NC(=O)c3nccnc3C(F)(F)F)cccc21 [Example 72] | 3.55^[a]
46 | CCON=C1CCCc2c(NC(=O)c3c(C(F)(F)F)nn(C)c3F)cccc21 [Example 73] | 3.57^[a]

Row | Compound | LogP^[a]
47 | CCON=C1CCCc2c(NC(=O)C3=C(C(F)(F)F)OCCS3)cccc21 [Example 74] | 3.63^[a]
48 | CON=C1CCCc2c(NC(=O)c3c(C(F)(F)F)nn(C)c3F)cccc21 [Example 75] | 3.11^[a]
49 | CON=C1CCCc2c(NC(=O)C3=C(C(F)(F)F)OCCS3)cccc21 [Example 76] | 3.21^[a]
50 | CCON=C1CCCc2c(NC(=O)c3ccsc3Br)cccc21 [Example 77] | 3.87^[a]
51 | CCON=C1CCCc2c(NC(=O)c3c(C)oc(C)c3C)cccc21 [Example 78] | 4.01^[a]
52 | CCON=C1CCCc2c(NC(=O)c3ccoc3C(F)F)cccc21 [Example 79] | 3.68^[a]
53 | CCON=C1CCCc2c(NC(=O)c3sc(C)nc3C(F)F)cccc21 [Example 80] | 3.37^[a]
54 | CCON=C1CCCc2c(NC(=O)c3sc(C)nc3CC)cccc21 [Example 81] | 3.37^[a]
55 | CCc1nc(C)sc1C(=O)Nc1cccc2c1CCC(C)(C)C2 [Example 82] | 3.87^[a]
56 | CON=C1CCCc2c(NC(=S)c3ccoc3C(F)F)cccc21 [Example 83] | 3.70^[a]
57 | CCON=C1CCCc2c(NC(=O)c3ccsc3I)cccc21 [Example 84] | 3.83^[a]
58 | Cn1cc(C(=S)Nc2ccc(F)c3c2CCCC3(C)C)c(C(F)F)n1 [Example 85] | 3.87^[a]
59 | Cn1nc(C(F)(F)F)c(C(=O)Nc2cccc3c2CCC(C)(C)C3)c1F [Example 86] | 3.99^[a]
60 | CC1(C)CCc2c(cccc2NC(=O)c2ccsc2I)C1 [Example 87] | 4.34^[a]
61 | CON=C1CCCc2c(NC(=S)c3nccnc3C(F)(F)F)cccc21 [Example 88] | 3.39^[a]
62 | CCON=C1CCCc2c(NC(=S)c3ccoc3C(F)F)cccc21 [Example 89] | 4.11^[a]
63 | Cc1nn(C)c(C)c1C(=O)Nc1ccc(F)c2c1CCCC2(C)C [Example 90] | 2.98^[a]
64 | CCON=C1CCCc2c(NC(=S)c3nccnc3C(F)(F)F)cccc21 [Example 91] | 3.83^[a]
65 | Cn1cc(C(=O)Nc2cccc3c2C(C)(C)CCC3)c(C(F)F)n1 [Example 92] | 2.99^[a]
66 | CCC1(CC)CCCc2c(NC(=O)c3cn(C)nc3C(F)F)cccc21 [Example 93] | 4.03^[a]

same assay, conditions: method [a], HPLC on reversed phase columns

Row | Compound | LogP[a]
67 | CCCC1CCc2c(NC(=O)c3cn(C)nc3C(F)F)cccc2C1C (mixture of isomers) [Example 95] | 4.18^[a]
68 | CC1(C)CCc2c(cccc2NC(=S)c2ccoc2C(F)F)C1 [Example 96] | 4.39^[a]
69 | CC(C)C1CCCc2c(NC(=O)c3cn(C)nc3C(F)(F)F)cccc21 (centres unmarked) [Example 99] | 3.96^[a]

same assay, conditions: pH 2.7

Row | Compound | chromatographic logP
70 | Cc1nc(C(F)F)c(C(=S)Nc2cccc3c2CCC(C)(C)C3)s1 [Example 97, 4-(difluoromethyl)-N-(6,6-dimethyl-5,6,7,8-tetrahydronaphthalen-1-yl)-2-methyl-1,3-thiazole-5-carbothioamide] | 4.16

same assay, conditions: reversed phase HPLC columns; method [a]: LC-MS at pH 2.7, 0,1% formic acid in water / acetonitrile, gradient 10% to 95% acetonitrile; amines of formula (III-a); read-out: LogP^[a]

Row | Compound | chromatographic logP
71 | CC1(C)CCc2c(N)cccc2C1 [III-a-3, 6,6-dimethyl-5,6,7,8-tetrahydronaphthalen-1-amine] | 1.88
